Experimental data: patent US20060134774A1, “Detection of protease enzymes” (Marligen Biosciences, Inc., priority 2002, published 2006)

Tests used:
Format in all cases: cell-based
caspase-3 [1] = target: T1, caspase-3 (Homo sapiens, UniProt P42574); experiment: Single-plex assay for active caspase-3 (bead capture of caspase-3/biotin-DEVD-FMK complex from treated cells); conditions: human myeloma cell line KAS, 8 hours, 5 uM camptothecin with 1 uM biotin-DEVD-FMK, vs. culture with inhibitor only
T1 construct: endogenous in cells; host or cells: human myeloma cell line KAS
T1 sequence (P42574 29-175 limits assumed): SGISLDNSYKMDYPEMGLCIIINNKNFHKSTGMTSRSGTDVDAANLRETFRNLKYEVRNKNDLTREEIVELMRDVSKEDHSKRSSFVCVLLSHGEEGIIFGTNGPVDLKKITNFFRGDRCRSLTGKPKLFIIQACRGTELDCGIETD
T1 sequence (P42574 176-277 limits assumed): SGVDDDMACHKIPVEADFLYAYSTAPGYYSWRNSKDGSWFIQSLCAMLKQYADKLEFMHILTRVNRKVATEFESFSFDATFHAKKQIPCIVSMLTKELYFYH
Procedure: Preparation of Amine-Reactive Beads
Luminex beads were dispersed by vortexing for 15 seconds followed by sonication in a water bath for 2 minutes. To wash, beads were pelleted by centrifugation for 2 minutes at 12,000×g in a microcentrifuge and then resuspended in 100 ul of water. Beads were pelleted again, resuspended in 80 ul of activation buffer (100 mM sodium phosphate, monobasic pH 6.3), vortexed briefly and sonicated for 30 seconds. Reactive n-hydroxysuccinimide (NHS) esters on the bead surface were prepared by adding 10 ul of 50 mg/ml Sulfo-NHS solution (Pierce, Rockland, Ill.) and 10 ul of 50 mg/ml 1-Ethyl-3-[3-dimethylaminopropyl]carbodiimide Hydrochloride (EDC) to the bead suspension, briefly vortexing, and rotating for 20 minutes in the dark. […]
Human myeloma cell line KAS was cultured in RPMI+10% FBS at 37° C. in the presence of 5% CO2. […] After three washes, the cell pellet was vortexed in lysis buffer containing 50 mM Tris-HCl pH 7.5, 150 mM NaCl, 1 mM EDTA, 0.5% NP40, 0.5% Triton X-100 and protease inhibitors (5 ug/ml leupeptin, 2 ug/ml pepstatin A, 1 mM PMSF (phenyl methyl sulfonyl […]). Lysates were stored overnight at −80° C., thawed on ice, vortexed, and spun at 4° C. for 1 hour at 12,000×g in a micro-centrifuge. Protein concentrations in the cleared supernatants were determined spectrophotometrically using Bradford reagent prior to storage at −80° C. […]

caspase-3 [2] = target: T1, caspase-3; experiment: Multiplex caspase assay (antibody-coated bead array), caspase-3; conditions: myeloma cell line Kas, 8 hours camptothecin + biotin-DEVD-FMK vs. biotin-DEVD-FMK alone
Procedure: (§1) Using the method described in example 1 above Luminex bead sets (colors) 27, 29, and 31 are coupled to antibodies for caspase-3, caspase-7, and caspase 9 respectively. Immediately before using, beads are vortexed for 30 seconds and sonicated for 2 minutes to disperse. Beads are then mixed to provide a 1000 bead/ul (each color) suspension with equivalent representation of each bead set. Cell lysate was prepared from myeloma cell line Kas as describe in example 1. One culture was treated with biotinylated caspase inhibitor biotin-DEVD-FMK for 8 hours and a second culture was treated for 8 hours with the apoptosis inducer camptothecin and biotinylated caspase inhibitor, biotin-DEVD-FMK. A portion of the multiplex bead suspension (2 ul) was incubated with 50 ul of each sample of cell extract diluted to 10 ug/ml in assay buffer (50 mM Tris pH 7.5, 100 mM NaCl, 0.05% tween-20 and 0.1% BSA). Following a 1 hour incubation while shaking in the dark, beads are washed with 100 ul of assay buffer using a filterplate comprising a 1.2 micron PVDF membrane (Millipore). Beads are resuspended in 50 ul of assay buffer containing 2 ug/ml streptavidin-PE conjugate (Pierce) and shaken in the dark for an additional 30 minutes. […] The presence of labeled caspase enzymes on bead surfaces was detected using the Luminex 100 instrumentation. […]

caspase-7 [3] = target: T2, caspase-7 (Homo sapiens, UniProt P55210); experiment: Multiplex caspase assay (antibody-coated bead array), caspase-7; conditions: myeloma cell line Kas, 8 hours camptothecin + biotin-DEVD-FMK vs. biotin-DEVD-FMK alone
T2 construct: endogenous in cells; host or cells: human myeloma cell line KAS
T2 sequence (P55210 24-198 limits assumed): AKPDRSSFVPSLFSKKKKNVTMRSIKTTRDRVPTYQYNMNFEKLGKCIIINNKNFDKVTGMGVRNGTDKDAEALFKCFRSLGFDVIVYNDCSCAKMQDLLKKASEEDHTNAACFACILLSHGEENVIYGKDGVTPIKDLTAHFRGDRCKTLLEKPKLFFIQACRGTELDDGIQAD
T2 sequence (P55210 207-303 limits assumed): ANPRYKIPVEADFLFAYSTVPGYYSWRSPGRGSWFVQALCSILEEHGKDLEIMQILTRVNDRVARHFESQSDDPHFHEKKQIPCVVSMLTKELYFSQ
Procedure: as §1

caspase 9 [4] = target: T3, caspase 9 (Homo sapiens, UniProt P55211); experiment: Multiplex caspase assay (antibody-coated bead array), caspase 9; conditions: myeloma cell line Kas, 8 hours camptothecin + biotin-DEVD-FMK vs. biotin-DEVD-FMK alone
T3 construct: endogenous in cells; host or cells: human myeloma cell line KAS
T3 sequence (P55211 1-416): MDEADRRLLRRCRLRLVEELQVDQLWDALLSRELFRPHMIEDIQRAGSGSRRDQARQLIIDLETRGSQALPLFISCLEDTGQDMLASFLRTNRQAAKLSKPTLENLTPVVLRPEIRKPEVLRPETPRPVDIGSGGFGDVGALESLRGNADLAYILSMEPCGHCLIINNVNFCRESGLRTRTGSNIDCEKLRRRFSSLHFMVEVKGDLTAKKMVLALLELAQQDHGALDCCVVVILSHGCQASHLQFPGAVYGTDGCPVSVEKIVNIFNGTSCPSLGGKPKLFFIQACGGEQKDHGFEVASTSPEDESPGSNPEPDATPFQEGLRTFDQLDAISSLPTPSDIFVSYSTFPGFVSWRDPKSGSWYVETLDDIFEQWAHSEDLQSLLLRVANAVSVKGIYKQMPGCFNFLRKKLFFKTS
Procedure: as §1

caspase-3 [5] = target: T1, caspase-3; experiment: Competitive multiplex inhibitor assay, caspase-3; conditions: myeloma cell line Kas, 8 hours camptothecin + biotin-DEVD-FMK
Text: (§2) In another aspect of the invention a labeled inhibitor and a non-labeled inhibitor are both added to the sample. The non-labeled inhibitor competes with the labeled inhibitor for binding to proteases. With this mode of the invention, new inhibitors may be screened for specificity and the binding constants of new inhibitors may be determined by determining the amount of unlabeled inhibitor necessary to reduce the binding of the labeled inhibitor by a certain amount. Using the methods described in example 2 above Luminex bead sets (colors) 27, 29, and 31 are coupled to antibodies for caspase-3, caspase-7, and caspase 9 respectively. Immediately before using, beads are vortexed for 30 seconds and sonicated for 2 minutes to disperse. Beads are then mixed to provide a 1000 bead/ul (each color) suspension with equivalent representation of each bead set. Cell lysate is prepared from the myeloma cell line Kas as described in Example 1 with the exception that an additional portion of cells is treated for 8 hours with camptothecin, the biotinylated caspase inhibitor biotin-DEVD-FMK and an equal amount of an experimental caspase inhibitor called Mx435. The MX435 inhibitor is not labeled with biotin, and therefore, it competes with the labeled inhibitor for binding to each caspase. […] The presence of labeled caspase enzymes on bead surfaces is detected using the Luminex 100 instrumentation. […]

caspase-7 [6] = target: T2, caspase-7; experiment: Competitive multiplex inhibitor assay, caspase-7; conditions: myeloma cell line Kas, 8 hours camptothecin + biotin-DEVD-FMK
Text: as §2

caspase 9 [7] = target: T3, caspase 9; experiment: Competitive multiplex inhibitor assay, caspase 9; conditions: myeloma cell line Kas, 8 hours camptothecin + biotin-DEVD-FMK
Text: as §2

CC[C@@]1(O)C(=O)OCc2c1cc1n(c2=O)Cc2cc3ccccc3nc2-1 [camptothecin]
caspase 3 activity: signal of biotin-labeled inhibitor bound to captured caspase 3 (FIG. 10) (caspase-3 [1]): induced
induction of caspase 3 activity (median fluorescent intensity, FIG. 11) (caspase-3 [2]): induced the most
induction of caspase 7 activity (median fluorescent intensity, FIG. 11) (caspase-7 [3]): induced
induction of caspase 9 activity (median fluorescent intensity, FIG. 11) (caspase 9 [4]): induced the least
induction of caspase 3 activity by camptothecin (median fluorescent intensity, FIG. 12) (caspase-3 [5]): induced
induction of caspase 7 activity by camptothecin (median fluorescent intensity, FIG. 12) (caspase-7 [6]): induced
induction of caspase 9 activity by camptothecin (median fluorescent intensity, FIG. 12) (caspase 9 [7]): induced
